Data published in US10703748B2, “Diazanaphthalen-3-yl carboxamides and preparation and use thereof” (Samumed, LLC, priority 2017, dated 2020).
pEC50: −log10 of the molar value. Like-named read-outs stand apart in the source and are kept apart here.

Assays:
[1] = system: SW480 colon carcinoma cells; test: Cell viability assay (CellTiter-Glo); settings: Homo sapiens; for pEC50: SW480, 96 h; for inhibition at 10 µM: SW480, read-out: percent inhibition at 10 μM
GSK3β kinase = GSK3β kinase (Homo sapiens, UniProt P49841); test: GSK3β kinase activity (Ser/Thr 09 peptide Z-lyte FRET assay); type: biochemical; settings: recombinant kinase, 46 μM ATP, one hour at room temperature; read-out: EC50
DYRK1A kinase = DYRK1A kinase (Homo sapiens, UniProt Q13627); test: DYRK1A kinase activity (Ser/Thr 18 peptide Z-lyte FRET assay); type: biochemical; settings: recombinant DYRK1A, 30 μM ATP, one hour at room temperature;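 also: kinase activity read as coumarin/fluorescein emission ratio after development step, with unphosphorylated and phosphorylated peptide forms setting 0% and 100% controls, values from dose-response curves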
[2] = system: Wnt-responsive Sp5-Luc reporter in SW480 colon carcinoma cells; test: Screening assay for Wnt activity (Sp5-Luc reporter gene assay); settings: Homo sapiens; for pEC50: SW480; for inhibition at 10 µM: SW480, read-out: percent inhibition at 10 μM
IL-6 = IL-6 inhibition in LPS-stimulated human peripheral blood mononuclear cells (HTRF); settings: Homo sapiens, PBMC; for pEC50: 22 h; for inhibition at 10 µM: read-out: percentage in parentheses after EC50 >10
Procedure: Each compound was dissolved in DMSO (Catalog # D8418-100 ml, Sigma-Aldrich, St. Louis, Mo.) as a 10 mM stock and used to prepare compound source plates. […] After 22 hour incubation, a mixture of anti-IL6 XL665 and anti-IL-6 Cryptate diluted in reconstitution buffer (Catalog #62IL6PEC, Cisbio Inc., Bedford, Mass.) was added to each well. […] All samples were processed in duplicate. […] EC50 was determined using software generated by Dotmatics Limited (Windhill Bishops Stortford Herts, UK) using the Levenberg-Marquardt 4 parameter fitting procedure with finite different gradients.

[3] = system: α-smooth muscle actin (aSMA) positive LL29 cells; test: Inhibition of the fibrotic process: αSMA staining in TGF-β1 treated LL29 fibroblasts from IPF patients; settings: Homo sapiens, Fibroblast; for pEC50: 96 h; for inhibition at 10 µM: read-out: percentage in parentheses after EC50 >10
Procedure: Each compound was dissolved in DMSO as a 10 mM stock and used to prepare compound source plates. […] LL29 cells were plated at 1,500 cells/well in 70 μL/well F12 medium supplemented with 1% Fetal Bovine Serum. […] Wells treated with TGF-β1 and containing DMSO were used as positive control, and cells with only DMSO were negative control. Cells were incubated at 37° C. and 5% CO2 for 4 days. Following incubation for 4 days, SYTOX green nucleic acid stain (Life Technologies [Thermo Fisher Scientific]) was added to the wells at a final concentration of 1 μM and incubated at room temperature for 30 min. Cells were then fixed using 4% formaldehyde (Electron Microscopy Sciences), washed 3 times with PBS followed by blocking and permeabilization using 3% Bovine Serum Albumin (BSA; Sigma) and 0.3% Triton X-100 (Sigma) in PBS.

[4] = system: Tau phosphorylation at Ser396 (pSer396); test: Tau phosphorylation at Ser396 (pSer396) in SH-SY5Y cells, ELISA / western blot; type: cell-based, human; settings: Homo sapiens;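 also: decrease in pSer396 Tau measured in lysates of treated cells by colorimetric ELISA or chemiluminescent western blot, same pSer396 antibody for both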
Procedure: Two days before treatment, cells were seeded onto 96 well plates at 5×10^4 cells/well.
The above synthesized compounds were screened using the cell assay procedure to assess decrease Tau phosphorylation at Ser396 (pSer396) described below.
Cells were lysed with RIPA buffer complemented with phosphatase and protease inhibitors then lysates were spun down at 12,000 g for 10 min to remove any cellular debris.

[5] = system: secreted cytokines TNFα, IL-6 and KC-GRO; test: Secreted cytokines in Lipopolysaccharide-stimulated BV-2 cells (Table 9 does not say which cytokine); type: cell-based, mouse; settings: Mus musculus, BV-2, 5 h; read-out: EC50
Procedure: BV-2 cells (mouse microglial cells) were cultured in 1:1 DMEM medium supplemented with 10% FBS, and 1% penicillin/streptomycin.
BV-2 cells are plated at 35,000 cells/well in a volume of 100 μl for at least 4 hours before compounds are added. […] Compounds were added to cells overnight. […] Supernatant is removed and saved for further cytokine detection. The original plates with seeded cells were tested for cytotoxicity by measure of adenosine triphosphate (ATP) release by adding CellTiter-Glo® diluted 1:4 in distilled water (G7573, Promega) and transferring lysed cells to a completely black 96-well plate to be read with the Cytation3. Supernatant was then diluted 1:2 with a diluent from V-PLEX cytokine Kit and directly tested for the secreted cytokines TNFα, IL-6 and KC-GRO using electrochemiluminescence (Meso Scale Discovery). The standard curve for each cytokine was used to convert the electrochemiluminescent signal into pg of protein per mL.

[6] = SH-SY5Y cells, overnight (16-18 h), read-out: pSer396 Tau EC50

Chain of GSK3β kinase (P49841 whole entry): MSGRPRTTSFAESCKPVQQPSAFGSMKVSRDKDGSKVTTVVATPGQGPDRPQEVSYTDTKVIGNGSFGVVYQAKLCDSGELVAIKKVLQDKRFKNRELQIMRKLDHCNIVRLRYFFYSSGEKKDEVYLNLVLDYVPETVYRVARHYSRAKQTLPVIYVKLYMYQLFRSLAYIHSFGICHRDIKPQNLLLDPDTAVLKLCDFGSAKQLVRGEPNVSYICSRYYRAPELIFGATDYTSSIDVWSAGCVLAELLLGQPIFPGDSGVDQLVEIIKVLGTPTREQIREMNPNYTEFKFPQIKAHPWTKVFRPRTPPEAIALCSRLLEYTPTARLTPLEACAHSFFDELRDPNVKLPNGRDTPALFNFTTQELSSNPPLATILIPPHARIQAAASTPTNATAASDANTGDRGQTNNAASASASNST

Compound	pEC50 [1]	pEC50 (GSK3β kinase)	pEC50 (DYRK1A kinase)	pEC50 [2]	pEC50 (IL-6)	pEC50 [4, 6]	pEC50 [5]	inhibition at 10 µM [1] [%]	inhibition at 10 µM (IL-6) [%]	pEC50 [3]	inhibition at 10 µM [3] [%]	inhibition at 10 µM [2] [%]	pEC50 ([4]; SH-SY5Y, read-out: EC50 in the Tau assay)
COC1CCN(CC(=O)Nc2cc3nc(-c4cn(C)nn4)ccc3cn2)CC1 [Compound 358, 2-(4-Methoxypiperidin-1-yl)-N-(2-(1-methyl-1H-1,2,3-triazol-4-yl)-1,6-naphthyridin-7-yl)acetamide]	< 5.00	6.25	6.44	6.72	< 5.00	5.82		38	2	< 5.00	9.8		
Cc1ncc(-c2ccc3cnc(NC(=O)Cn4ccnc4)cc3n2)o1 [Compound 589, 2-(1H-Imidazol-1-yl)-N-(2-(2-methyloxazol-5-yl)-1,6-naphthyridin-7-yl) acetamide]	< 5.00	6.81	7.30	< 5.00	< 5.00	5.00		22.9	5.9	< 5.00	41.6	7.8	
C[C@H]1CCCN1CC(=O)Nc1ncc2ccc(-c3cnn(C)c3)cc2n1 [Compound 954, (S)—N-(7-(1-Methyl-1H-pyrazol-4-yl)quinazolin-2-yl)-2-(2-methylpyrrolidin-1-yl)acetamide]	< 5.00	6.71	7.16	< 5.00	< 5.00	5.77		45.1	5.7	5.67		29.6	
COC1CCN(CC(=O)Nc2ncc3ccc(-c4cn(C)nn4)cc3n2)CC1 [Compound 1264, 2-(4-Methoxypiperidin-1-yl)-N-(7-(1-methyl-1H-1,2,3-triazol-4-yl)quinazolin-2-yl)acetamide]	< 5.00	7.77	7.37	5.01	< 5.00	6.04		27.8	7.9	< 5.00	5.7		
Nc1cncc(-c2cc3cc(NC(=O)c4ccc(OC5CCNCC5)cc4)ncc3cn2)c1 [Compound 4431, N-(6-(5-Aminopyridin-3-yl)-2,7-naphthyridin-3-yl)-4-(piperidin-4-yloxy) benzamide]	5.50	5.42	8.52	5.55	< 5.00		7.40		3.6	5.60			
CN1CCC(n2cc(C(=O)Nc3cc4cc(-c5cncc6[nH]ccc56)ncc4cn3)cn2)CC1 [Compound 4523, N-(6-(1H-Pyrrolo[2,3-c]pyridin-4-yl)-2,7-naphthyridin-3-yl)-1-(1-methylpiperidin-4-yl)-1H-pyrazole-4-carboxamide]	6.29	< 5.00	8.00	6.14	5.49		5.89			5.62			
O=C(Nc1cc2nc(-c3cnco3)ccc2cn1)c1ccc(OC2CCNCC2)cc1 [Compound 4551, N-(2-(Oxazol-5-yl)-1,6-naphthyridin-7-yl)-4-(piperidin-4-yloxy)benzamide]	5.98	5.37	8.30	5.99	5.52		6.40			6.49			
CN1CCN(c2ncc(C(=O)Nc3ncc4ccc(-c5cnn(C)c5)cc4n3)s2)CC1 [Compound 4570, N-(7-(1-Methyl-1H-pyrazol-4-yl)quinazolin-2-yl)-2-(4-methylpiperazin-1-yl) thiazole-5-carboxamide]	5.25	5.66	8.52	5.49	< 5.00		6.89		18.4	< 5.00	5.5		
COc1ccc2c(c1)[nH]c1c(C)nccc12 [Harmine, reference compound]													< 5.00

Continued, in another order:

pEC50 [1]	pEC50 (GSK3β kinase)	pEC50 (DYRK1A kinase)	pEC50 [2]	pEC50 (IL-6)	pEC50 [4, 6]	pEC50 [5]	Compound	inhibition at 10 µM [1] [%]	inhibition at 10 µM (IL-6) [%]	pEC50 [3]	inhibition at 10 µM [3] [%]	inhibition at 10 µM [2] [%]	pEC50 ([4]; SH-SY5Y, read-out: EC50 in the Tau assay)
5.56	5.64	8.15	6.70	< 5.00		5.62	Cn1cncc1-c1cc2cc(NC(=O)c3cccc(CN4CCCC4)c3)ncc2cn1 [Compound 4077, N-(6-(1-Methyl-1H-imidazol-5-yl)-2,7-naphthyridin-3-yl)-3-(pyrrolidin-1-ylmethyl)benzamide]		3.6	5.99			
5.22	5.13	7.85	< 5.00	< 5.00		5.29	CN1CCC(Oc2cccc(C(=O)Nc3cc4cc(-c5cnco5)ncc4cn3)c2)CC1 [Compound 4218, 3-((1-Methylpiperidin-4-yl)oxy)-N-(6-(oxazol-5-yl)-2,7-naphthyridin-3-yl) benzamide]		3.7	5.53		24.9	
5.61	5.79	8.22	5.39	< 5.00		6.20	CN1CCN(c2cc(C(=O)Nc3cc4cc(-c5cncs5)ncc4cn3)ccn2)CC1 [Compound 4257, 2-(4-Methylpiperazin-1-yl)-N-(6-(thiazol-5-yl)-2,7-naphthyridin-3-yl) isonicotinamide]		5.3	5.60			
< 5.00	6.08	7.32	< 5.00	< 5.00		< 5.00	CO[C@H]1CC[C@H](C(=O)Nc2cc3cc(-c4nnc(C)s4)ncc3cn2)CC1 [Compound 4332, trans-4-Methoxy-N-(6-(5-methyl-1,3,4-thiadiazol-2-yl)-2,7-naphthyridin-3-yl)cyclohexane-1-carboxamide]	16.5	0	< 5.00	23.6	9.6	
5.29	< 5.00	7.92	5.07	5.01		5.02	CN1CCN(c2cc(C(=O)Nc3cc4cc(-c5ccc(N)nc5)ncc4cn3)ccn2)CC1 [Compound 4434, N-(6-(6-Aminopyridin-3-yl)-2,7-naphthyridin-3-yl)-2-(4-methylpiperazin-1-yl)isonicotinamide]			5.80			
6.02	< 5.00	8.52	6.56	5.46		7.33	CN1CCC(Nc2cc(C(=O)Nc3cc4nc(-c5cnn(C)c5)ccc4cn3)ccn2)CC1 [Compound 4538, N-(2-(1-Methyl-1H-pyrazol-4-yl)-1,6-naphthyridin-7-yl)-2-((1-methylpiperidin-4-yl)amino)isonicotinamide]			6.15			
6.11	5.65	8.70	6.52	< 5.00		7.10	CN1CCN(c2ncc(C(=O)Nc3cc4nc(-c5cnn(C)c5)ccc4cn3)s2)CC1 [Compound 4539, N-(2-(1-Methyl-1H-pyrazol-4-yl)-1,6-naphthyridin-7-yl)-2-(4-methylpiperazin-1-yl)thiazole-5-carboxamide]		37.4	5.96			
< 5.00	6.11	7.72	< 5.00	< 5.00		6.40	O=C(Nc1cc2nc(-c3cnco3)ccc2cn1)[C@H]1CC[C@H](CO)CC1 [Compound 4548, trans-4-(Hydroxymethyl)-N-(2-(oxazol-5-yl)-1,6-naphthyridin-7-yl) cyclohexane-1-carboxamide]	29.8	3.2	< 5.00	50		
< 5.00	7.47	6.88	< 5.00	< 5.00		5.60	Cc1nnc(-c2ccc3cnc(NC(=O)CN4C[C@@H]5C[C@H]4CO5)nc3c2)s1 [Compound 4593, 2-((1S,4S)-2-Oxa-5-azabicyclo[2.2.1]heptan-5-yl)-N-(7-(5-methyl-1,3,4-thiadiazol-2-yl)quinazolin-2-yl)acetamide]	27.4	4.8	< 5.00	41.4	32.8	
5.57	5.11	7.57	5.42	< 5.00		6.56	Cc1cn2c(n1)CN(C(=O)Nc1cc3cc(-c4cnco4)cnc3cn1)CC2 [Compound 4615]		5.8	< 5.00	35.6		
< 5.00	5.33	7.40	< 5.00	< 5.00		5.85	Cc1ncc(-c2cnc3cnc(NC(=O)C4CCN(C5COC5)CC4)cc3c2)s1 [Compound 4622, N-(3-(2-methylthiazol-5-yl)-1,7-naphthyridin-6-yl)-1-(oxetan-3-yl)piperidine-4-carboxamide]	27.9	2.3	< 5.00	29.4	50	
